In paper PMC4198181, “Gold(I) Complexes of 9-Deazahypoxanthine as Selective Antitumor and Anti-Inflammatory Agents” (PLoS ONE, 2014):

Experiments:
Assay type in all cases: cell-based, human
[1] = tested on: IκB-α degradation (NF-κB signalling pathway); assay: LPS-induced IκB-α degradation (Western blot) in THP-1 macrophages; details: 300 nM, 30 min after LPS
Protocol: Macrophage-like THP-1 cells were pretreated with the tested compounds and stimulated by LPS as was describe above. Thirty minutes after the addition of LPS, the medium was aspirated and cells were washed by cold phosphate buffer solution (PBS). Subsequently, the cells were collected using the lysis buffer [50 mM Tris-HCl pH 7.5, 1 mM EGTA, 1 mM EDTA, 1 mM sodium orthovanadate, 50 mM sodium fluoride, 5 mM sodium pyrophosphate, 270 mM sucrose, 0.1% (v/v) Triton X-100, and cOmplete Protease Inhibitor Cocktail (Roche, Germany)] and scraper. The lysis of cells was facilitated by a short (≈30 s) incubation in the ultrasonic water bath. The protein concentration was determined according to Bradford's method. For protein separation, 30 µg of protein was loaded onto the 12% polyacrylamide gel. […] The membranes were incubated with the primary anti-IκB-α antibody at the concentration ratio of 1∶500, or with the primary anti-β-actin at the concentration ration of 1∶5 000 at 4°C for 16 h. After washing, the secondary anti-mouse IgG antibody diluted 1∶2 000 was applied on the membranes and incubated at laboratory temperature (22°C) for 1 h. The amount of the bound secondary antibody was detected colorimetrically by an Opti-4CN Kit according to the manufacturer's manual.

TNF-α mRNA = assay: TNF-α gene expression by RT-qPCR in LPS-stimulated THP-1 macrophages; details: 300 nM, 2 h after LPS, normalised to β-actin
Protocol: For the determination of biological activity, we used the human monocytic leukaemia cell line THP-1 (ECACC, Salisbury, UK). The cells were cultivated at 37°C in the RPMI 1640 medium supplemented with 2 mM L-glutamine, 10% FBS, 100 U/mL of penicillin and 100 µg/mL of streptomycin in a humidified atmosphere containing 5% CO2. Stabilized cells (3rd–15th passage) were split into microtitration plates to get a concentration of 500 000 cells/mL and the differentiation to macrophages was induced by phorbol myristate acetate (PMA) dissolved in dimethyl sulfoxide (DMSO) at the final concentration of 50 ng/ml, and the cells were incubated for 24 h. In comparison with monocytes, differentiated macrophages tend to adhere to the bottoms of the cultivation plates. For next 24 h the cells were incubated with a fresh complete RPMI medium, i.e. containing antibiotics and FBS, without PMA. The medium was then aspirated, and the cells were washed with PBS and cultivated for next 24 hours in serum-free RPMI 1640 medium. These prepared macrophages were used for the detection of inflammatory response.
In the order to evaluate the expression of TNF-α, IL-1β, and β-actin mRNA, total RNA was isolated directly from the LPS-stimulated THP-1 cells. THP-1 macrophages were pretreated with compounds 2, 5, and Auranofin at the concentration of 300 nM or the vehicle (0.1% DMSO) only. After 1 h of the incubation, the inflammatory response was induced by LPS [except for the control cells (CTRL)]. After 2 h of the incubation with LPS, the medium was aspirated and the total RNA was isolated directly from the cells in cultivation plates using a RealTime Ready Cell Lysis Kit (Roche), according to the manufacturer's instructions.
The gene expression was quantified by two-step reverse-transcription quantitative (real-time) PCR (RT-qPCR). The reverse transcription step was performed by Transcriptor Universal cDNA Master using cell lysate as a template. […] The results were normalized to the amount of ROX reference dye, and the change in gene expression was determined by the 2^−ΔΔCT method. […]

[2] = tested on: A2780R ovarian carcinoma cells resistant to cisplatin; assay: MTT in vitro cytotoxicity, A2780R; details: 24 h treatment, MTT; read-out: IC50±S.E., A2780R
Protocol: In vitro cytotoxic activity was determined by the MTT assay in human breast adenocarcinoma (MCF7; ECACC no. 86012803), human osteosarcoma (HOS; ECACC no. 87070202), lung carcinoma (A549; ECACC no. 86012804), malignant melanoma (G361; ECACC no. 88030401), cervix epitheloid carcinoma (HeLa; ECACC no. 93021013), ovarian carcinoma (A2780; ECACC no. 93112519), cisplatin-resistant ovarian carcinoma (A2780R; […] ECACC no 105092802) cancer cell lines, purchased from European Collection of Cell Cultures (ECACC). […] The primary culture of human hepatocytes (HEP220, batch number HEP220819) was obtained from Biopredic International (France). The culture medium was Williams and HAM's F-12 (1∶1) supplemented with penicillin, streptomycin, ascorbic acid, linoleic acid, holo-transferin, ethanolamine, glucagon, insulin, dexamethasone, pyruvate, glucose, glutamine, amphotericin. The medium was enriched for plating with 2% foetal calf serum (v/v). The medium was exchanged for a serum-free medium the day after and the culture was stabilized for additional 24 h. Thereafter, the cells were ready for treatments. […] The MTT assay was performed spectrophotometrically at 540 nm (TECAN, Schoeller Instruments LLC). The cytotoxicity data were expressed as the percentage of viability, where 100% represented the treatments with vehicle (0.1% DMF or 0.1% DMSO). The cytotoxicity data from the cancer cell lines were acquired from three independent experiments (conducted in triplicate) using cells from different passages. The IC50 values were calculated from viability curves. The results are presented as arithmetic means±standard error of the mean (S.E.).

| Compound | effect on LPS-induced IκB degradation [1] | effect on TNF-α mRNA transcription (TNF-α mRNA) | IC50 [2] |
| --- | --- | --- | --- |
| CC(C)Oc1ncnc2cc[n]([Au])c12.c1ccc(P(c2ccccc2)c2ccccc2)cc1 [complex 2, [Au(L2)(PPh3)]] | block moderately the IκB degradation | significantly reduce the transcription | 5.3 ± 0.4 µM |
| [Au][n]1ccc2ncnc(OCCc3ccccc3)c21.c1ccc(P(c2ccccc2)c2ccccc2)cc1 [complex 5] | block moderately the IκB degradation | significantly reduce the transcription | 5 ± 0.3 µM |
